Laboratory results from a melting point compilation (Tetko et al.; mined from patent text by program, amines drawn as free bases though some values may be those of a salt).

Compound	melting point [°C]
CCCOC1=NS(=O)(=O)N(C)C(Oc2ccc([N+](=O)[O-])cc2)=N1	129 to 131
c1ccc(-n2c(C3=NCCN3)cc3ccccc32)cc1	180 to 182
Nc1c2c(nc3ccccc13)CCCC2N1CCCC1 (stereo unspecified)	201 to 203
COc1ccccc1CC(=O)N1C[C@@H]2SCCC(c3ccccc3)(c3ccccc3)[C@@H]2C1 (racemic)	172
CCCC(=O)c1cnc2c(OCCCN3CCCC3)cccc2c1Nc1ccccc1C	101 to 103
Nc1cc(N2CC(CCc3ccccc3)OC2=O)ccn1 (stereo unspecified)	143 to 144
CN(C)CCSc1sc(-c2cc[nH]n2)c2c1C(=O)CC(C)(C)C2	212 to 214
CCN1C[C@@H](O)[C@H](Oc2ccc(C(C)=O)cc2OC)C1 (relative stereo)	121 to 123
CC(C)N(C(=O)CN1C(=O)C(C)(CC(=O)Nc2ccccc2)C(=O)N(c2ccccc2)c2ccccc21)c1ccccc1 (stereo unspecified)	228 to 229
CC#CCOc1ccc(S(=O)(=O)C(C(=O)OCC)C2CCN(C(=O)c3ccccc3)CC2)cc1 (stereo unspecified)	120
c1ccc(Oc2ccc(N3CCNCC3)nn2)cc1	96 to 97
CCOc1c(C(=O)O)cnc2c1cnn2CC	198 to 199
Fc1cccc(OC2CN(C3CCC(c4c[nH]c5ccccc45)CC3)C2)c1 (stereo unspecified)	114 to 117
FCc1cccc(-c2ccc(-c3cn([C@H]4CN5CCC4CC5)nn3)s2)c1	144
Cc1ccc(S(=O)(=O)NC(=O)C2C(=O)CC3(CCCCC3)CC2=O)cc1	150 to 152
Nc1nc(Cl)c2ncn([C@@H]3C[C@H](O)[C@@](O)(CO)C3)c2n1	217 to 219
CC(C)(C)C(NC(=O)c1ccccc1)NC(=S)Nc1cccnc1 (stereo unspecified)	193 to 194
NC(N)=Nc1nc(-c2cccc(CNC(=O)C3CCCNC3)n2)cs1 (stereo unspecified)	227 to 228
COC(=O)COc1cccnc1Br	63 to 64
CCOCCN(SC(Cl)(Cl)Cl)C(=N)C(Cl)(Cl)Cl	65 to 66
CCOc1c(C(=O)NCC(O)CN(CC)CC)n(-c2ccccc2)c2ccccc12 (stereo unspecified)	146 to 148
CCc1nc(/C=C/c2cn(-c3ccccc3)nc2OCc2ccc(OCc3nc(-c4ccc(CC(=O)O)cc4)oc3C)c(OC)c2)co1	117 to 119
CSC1C2=C(CCCC2)C(=O)N1c1ccc(Cl)cc1F (stereo unspecified)	97 to 98

Compound	melting point [°C]
CCCCCCCCCCSc1ccc2c3c(cccc13)C(=O)N(CC(=O)O)C2=O	137 to 140
Cc1cccc(NC(N)=S)n1	188 to 190
COc1ccc(-c2cnc3[nH]cc(C(=O)NC4CCN(C)C4)c3n2)cc1OC (stereo unspecified)	193 to 194
CC(C)(O)c1ccc(CCl)cc1	101 to 103
O[C@@H]1[C@H](O)CS[C@H]1n1cnc2c(NCc3cccc(I)c3)ncnc21	199 to 200
O=C1C(I)=CC2COC1O2 (stereo unspecified)	66 to 67
COC(=O)c1cc(N)c(Cl)c(N)c1	110 to 120
O=C(Nc1ccc(C(=O)N2Cc3ccccc3Cc3ccccc32)cc1)c1c(Cl)cccc1Cl	257 to 259
O=C(O)CNc1csc2ccccc12	195 to 198
CSc1sc(-c2cncs2)c2c1C(=O)CC(C)(C)C2	138 to 140
CC(=O)Nc1cnc(C2OCCO2)cc1C	98 to 99
CCCCCCCCCCCCC1(Cc2cc(N=Nc3ccc([N+](=O)[O-])cc3[N+](=O)[O-])ccc2O)COCCOCC(C)(C)COCCOC1	64 to 65
CC(C)OC(=O)c1nc2ccc(OCCCN3CCC(OC(c4ccccc4)c4ccccc4)CC3)nn2n1	126 to 127
CCN(C(=O)Cl)c1ccc2c(c1)OCO2	68 to 69
Oc1ccc(-c2cnc3cnc(-c4ccc(O)cc4)nc3c2)cc1	307 to 308
Cc1nc(C#N)c2n1-c1ccc(Cl)cc1C(c1ccccc1)=NC2	228 to 229
CS(=O)(=O)CCN1CCC2(CC1)CC(=O)c1cc(NS(C)(=O)=O)ccc1O2	250 to 251
O=C1Nc2ccc([N+](=O)[O-])cc2C1(Br)Br	205
CCCc1ccc([C@H]2CC[C@H](O)CC2)cc1	78.2 to 80
NC(=S)NN=Cc1ncc([N+](=O)[O-])n1Cc1ccccc1	193 to 196
CN1C(=O)CCC2(C)c3ccc(-c4ccccc4)cc3CCC12 (single isomer, unassigned; (+))	155
ClCc1cnoc1-c1cc(Cl)c(Cl)s1	60 to 61
COC(=O)c1ccc(O)nc1C1=NC(C)(C(C)C)C(=O)N1 (stereo unspecified)	186 to 191

Results, then the molecule that gave them:

melting point [°C]	Compound
175 to 176	CC(C)(C)OC(=O)COc1ccc(-c2c(Cl)c(CN3C(=O)CCC3=O)nc3sc4c(c23)CCS(=O)C4)cc1 (stereo unspecified)
210 to 213	CSc1cc(C(=O)O)cc([N+](=O)[O-])c1C(=O)c1ccccc1
112 to 114	COc1ccc2c(c1)/C(=C/C#N)C(c1ccccc1)C2 (stereo unspecified)
> 300	COc1ccc(-c2nc3cc(Cl)c(Cl)cc3[nH]2)cc1N
192	O=CCc1ccc2c(c1[N+](=O)[O-])C(=O)c1ccccc1C2=O
105 to 115	CCCn1cc(Cc2ccc(C(=O)O)cc2OC)c2cc(CC3CCCN(C)C3=O)ccc21 (stereo unspecified)
146 to 148	O=S(c1ccc2c(c1)C(=C1CCN(CC3CC3)CC1)c1ccccc1C=C2)C(F)(F)F (stereo unspecified)
182 to 184	Cc1ccc(C(=O)Nc2ccccc2)cc1NC(=S)Nc1cc(Cl)cc(Cl)c1
222 to 223	Cc1ncc(C#N)c(Nc2ccc3[nH]ccc3c2C)c1I
94 to 97	CCOC(=O)C=Cc1ccc(Oc2c(-c3ccc(OC)cc3)ccc3cc(OC)ccc23)cc1
194 to 195	O=[N+]([O-])c1cc(Cl)c(C=CN2CCN(c3nsc4ccccc34)CC2)cc1Cl
229 to 230	CCn1cc2c(n1)c(N)nc1cc(OCc3ccccc3)ccc12
212 to 213	CS(=O)(=O)c1ccc(Oc2c(-c3ccc(S(C)(=O)=O)cc3)cnn(CC(F)(F)F)c2=O)cc1
191 to 192	CCCc1nc2c(N)nc3cc(-c4ccccc4)ccc3c2n1CCCC(C)=NOC
150 to 152	Cc1nc(-c2ccccc2)cc(-c2cccc(C#N)c2)c1NC(=O)CCN1CCOCC1
154 to 157	Cc1ccc(CC2(O)CCN(CC3=Cc4ccc(O)cc4C3)CC2)cc1
196 to 198	COc1cc2c(Nc3ccc(Sc4nccn4C)c(Cl)c3)c(C#N)cnc2cc1OCCCN1CCC(N2CCCC2)CC1
94 to 95	COc1ccc(N)cc1OCCCN1CCC(c2noc3cc(F)ccc23)CC1
261 to 263	Nc1cccc(-n2c(=O)c3c(CCc4ccncc4)n[nH]c3c3cccnc32)c1
108 to 109	CC1(C)CCC(C)(C)c2cc(OCc3ccc(CO)cc3)ccc21
134 to 136	CCc1ccc2ncc([N+](=O)[O-])c(Nc3ccccc3Cl)c2c1
211 to 212	Cc1c[nH]c(-c2c(Cl)cc(C(F)(F)F)cc2Cl)n1
181 to 184	O=C(O)Cc1ccc2c(c1)C(=O)Cc1cccnc1O2
112	COc1ccc2oc(Cc3cc(C(F)(F)F)cc(C(F)(F)F)c3)c(CC#N)c2c1
190 to 192	CCCCc1nc(=O)c2cc(C(C)(C)O)ccc2[nH]1
